Drawing on US20110028447A1, “INDAZOLE DERIVATIVES” (Pfizer Inc., priority 2008, published 2011), this text covers Ki for 48 compounds.

pKi: −log10 of the molar value.

Sequence of human CB1 receptor (P21554 whole entry): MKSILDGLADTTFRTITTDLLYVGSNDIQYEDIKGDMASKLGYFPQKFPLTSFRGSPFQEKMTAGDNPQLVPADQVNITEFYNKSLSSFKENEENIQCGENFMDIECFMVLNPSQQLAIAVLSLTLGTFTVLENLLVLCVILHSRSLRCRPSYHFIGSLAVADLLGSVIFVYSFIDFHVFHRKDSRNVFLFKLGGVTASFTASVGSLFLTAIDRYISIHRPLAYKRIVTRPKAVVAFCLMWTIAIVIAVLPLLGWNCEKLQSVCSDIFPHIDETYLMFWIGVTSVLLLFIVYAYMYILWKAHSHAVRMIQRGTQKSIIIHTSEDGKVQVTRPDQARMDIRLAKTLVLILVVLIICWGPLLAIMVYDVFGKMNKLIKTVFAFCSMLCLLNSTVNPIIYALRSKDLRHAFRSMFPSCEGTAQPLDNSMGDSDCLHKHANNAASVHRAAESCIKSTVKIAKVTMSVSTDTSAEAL

The target in the first assay is human CB1 receptor (Homo sapiens, UniProt P21554). Briefly: Human CB1 receptor binding, [3H] CP-55,940 displacement on HEK cell membranes. Further details: expressed in transfected cells; host or cells: HEK cells, doxycycline-induced; membrane preparation. The settings on record: CB1 Ki. How it is done:
The Human CB1 receptor binding affinity and other biological activities of the compounds of this invention are determined by the following procedures. Membrane preparation: Human Embryonic Kidney (HEK) Cells expressing the human CB1 receptor under transcriptional regulation of a tetracycline inducible promoter were grown in Dulbecco's Modified Essential Medium with sodium pyruvate (Invitrogen, Carlsbad, Calif.) containing 10% tetracycline free fetal bovine serum (Clonetech, Mountain View, Calif.) 100 μg/ml hygromycin (Calbiochem, San Diego, Calif.), 5 μg/ml blasticidin (Invitrogen). CB1 receptor expression was induced by addition of 1 μg/ml doxycycline (Calbiochem) and incubation for an additional 24 hours. Cells were released from flasks using Cell Dissociation Buffer (Invitrogen). Cells were pelleted by centrifugation at 500×G for 5 minutes. Membranes were prepared by resuspending cells in ice cold TEE Buffer (25 mM Tris pH 7.4, 5 mM EDTA, 5 mM EGTA, Complete Protease Inhibitor (Roche, Basel, Switzerland)). Cells were lysed with 12 strokes of a dounce homogenizer. Unlysed cells were pelleted by centrifugation at 500×G for 5 minutes. Membranes were pelleted by centrifugation at 25,000×G for 30 minutes. Membranes were resuspended in TEE, dounced 12 strokes, and pelleted a second time at 25,000×G for 30 minutes. Membrane pellet was resuspended in 50 mM Tris pH 7.4, 100 mM NaCl, 3 mM MgCl2, 0.2 mM EGTA, Complete Protease Inhibitor (Roche). Protein concentration was determined using the Micro-BCA Protein Assay Kit (Pierce, Rockford, Ill.) using BSA as a standard. Membranes were quick frozen and stored at −80 degrees Celsius until use.
Binding experiments: 50 μl of test compound was incubated with 50 μl of [^3H] CP-55,940 (Perkin Elmer, Boston, Mass.) (final concentration=[…]) and 150 μl of membrane homogenate (1 μg/well) in polypropylene 96-well plates (Corning, Acton, Mass.). Final reaction conditions were 50 mM Tris pH 7.4, 100 mM NaCl, 3 mM MgCl2, 0.2 mM EGTA, 0.04% BSA. Nonspecific binding was determined by incubation with 50 μM WIN-55, 212-2 (Tocris, Ellisville, Mo.). After incubation at room temperature for 60 minutes reactions were harvested by vacuum filtration through Unifilter GF/B-96 filters (Perkin Elmer) that had been presoaked in assay buffer containing 0.5% BSA (Sigma, St. Louis, Mo.) using a FilterMate Plate Harvester (Perkin Elmer). Filters were rinsed 4 times with 50 mM Tris pH 7.4, 0.025% Tween-20 and dried at 50 degrees Celsius for at least 30 minutes. 40 μl of Microscint-20 (Perkin Elmer) was added per well, and plates were counted using a Top-Count Microplate Scintillation Counter (Perkin Elmer). Binding data were analyzed and EC50 and K, values calculated using Graph Pad Prism 4.0 Software.
Consider `NC(=O)[C@H](Cc1ccccc1)NC(=O)c1nn(Cc2ccc(F)cc2)c2ccccc12` [Example 4, N-α-{[1-(4-fluorobenzyl)-1H-indazol-3-yl]carbonyl}-L-phenylalaninamide], for which the pKi was 6.15. Take `Cc1cc(Cn2nc(C(=O)N[C@H](C(N)=O)C(C)(C)C)c3ccccc32)no1` [Example 5, N-[(1S)-1-(aminocarbonyl)-2,2-dimethylpropyl]-1-[(5-methylisoxazol-3-yl)methyl]-1H-indazole-3-carboxamide]: the negative-log Ki (pKi) was 6.02.

Regarding `CC(C)(C)[C@H](NC(=O)c1nn(Cc2ccc(F)cc2)c2ccccc12)C(=O)NCC(=O)O` [Example 9, N-{[1-(4-fluorobenzyl)-1H-indazol-3-yl]carbonyl}-3-methyl-L-valylglycine], the pKi is 7.07. Same read-out and setting: next, `CC(C)(C)[C@H](NC(=O)c1nn(Cc2ccc(C#N)cc2)c2ccccc12)C(=O)NCc1nn[nH]n1` [Example 217]: < 6.40; `CC(C)(C)[C@H](NC(=O)c1nn(Cc2ccc(C#N)cc2)c2c(F)cccc12)C(=O)NCCS(C)(=O)=O` [Example 221]: 7.06. Still for that read-out and setting: as for `CC(C)(C)[C@H](NC(=O)c1nn(Cc2ccc(C#N)cc2)c2c(F)cccc12)C(=O)NCCS(N)(=O)=O` [Example 222], the figure is 7.67; as for `CC(C)(C)[C@H](NC(=O)c1nn(Cc2ccc(F)cc2)c2ccccc12)C(=O)N[C@H](CO)C(=O)O` [Example 235], 6.65; as for `COC(=O)[C@@H](O)CNC(=O)[C@@H](NC(=O)c1nn(Cc2ccc(C#N)cc2)c2ccccc12)C(C)(C)C` [Example 237], < 6.40. For the compound `CC(C)(C)[C@H](NC(=O)c1nn(Cc2ccc(F)cc2)c2ccccc12)C(=O)N[C@@H](CO)C(=O)O` [Example 240], the pKi was 6.82. The same measure, in the same setting: next, `CC(C)(C)[C@H](NC(=O)c1nn(Cc2ccc(F)cc2)c2ccccc12)C(=O)N[C@@H]1CCCC[C@H]1O` [Example 248]: 6.97. On to `CC(C)(C)[C@H](NC(=O)c1nn(Cc2ccc(F)cc2)c2ccccc12)C(=O)N[C@H]1CCCC[C@@H]1O` [Example 252], for which the pKi is 6.69.

As to `CC(C)(C)[C@H](NC(=O)c1nn(Cc2ccc(C(F)(F)F)cc2)c2ccccc12)C(=O)NC[C@H](O)CO` [Example 256], the pKi is 7.01. `CC(C)(C)[C@H](NC(=O)c1nn(Cc2ccc(C(F)(F)F)cc2)c2ccccc12)C(=O)NCCS(N)(=O)=O` [Example 257]: the pKi was 6.65. On the same count and under the same terms, next, `CC(C)(C)[C@H](NC(=O)c1nn(Cc2ccc(C(F)(F)F)cc2)c2ccccc12)C(=O)NCCS(C)(=O)=O` [Example 258]: < 6.40. Same read-out and setting: as for `CC(C)(C)[C@H](NC(=O)c1nn(Cc2ccc(C(F)(F)F)cc2)c2ccccc12)C(=O)NCC(N)=O` [Example 259], the figure is 6.88; as for `CC(C)(C)[C@H](NC(=O)c1nn(Cc2ccc(C(F)(F)F)cc2)c2ccccc12)C(=O)NC[C@@H](O)CO` [Example 260], < 6.40. Still for that read-out and setting: as for `CC(C)(C)[C@H](NC(=O)c1nn(Cc2ccc(C(F)(F)F)cc2)c2ccccc12)C(=O)NC(CO)CO` [Example 261], the figure is 7.12; as for `CC(C)(C)[C@H](NC(=O)c1nn(Cc2ccc(C#N)cc2)c2ccccc12)C(=O)N1CCS(=O)(=O)CC1` [Example 268], < 6.40; as for `CC(C)(C)[C@H](NC(=O)c1nn(Cc2ccc(F)cc2)c2ccccc12)C(=O)N1CCS(=O)(=O)CC1` [Example 269], 7.62. On to `CC(C)(C)[C@H](NC(=O)c1nn(Cc2cccc3ccccc23)c2ccccc12)C(N)=O` [Example 272], for which the pKi is < 6.40. `CC(C)(C)[C@H](NC(=O)c1nn(Cc2cccc3ccccc23)c2ccccc12)C(=O)NC1CC1` [Example 273]: the pKi was < 6.40. As for `CC(C)(C)[C@H](NC(=O)c1nn(Cc2cccc3ccccc23)c2ccccc12)C(=O)NCCO` [Example 274], the negative logarithm of the Ki (pKi) is < 6.40. As for `CC(C)(C)[C@H](NC(=O)c1nn(Cc2cccc3ccccc23)c2ccccc12)C(=O)NCC(N)=O` [Example 275], the pKi was < 6.40. In the case of `CC(C)(C)[C@H](NC(=O)c1nn(Cc2cccc3ccccc23)c2ccccc12)C(=O)NC[C@H](O)CO` [Example 276], the pKi was < 6.40.

In turn, `CC(C)(C)[C@H](NC(=O)c1nn(Cc2ccc(F)cc2)c2ccccc12)C(=O)N[C@H]1CCC[C@@H]1O` [Example 279] had a pKi of 7.27. Same read-out and setting: next, `CC(C)(C)[C@H](NC(=O)c1nn(Cc2ccc(F)cc2)c2ccccc12)C(=O)N[C@H]1CCC[C@H]1O` [Example 280]: 6.75; `CC(C)(C)[C@H](NC(=O)c1nn(Cc2ccc(C#N)cc2)c2ccccc12)C(=O)NC[C@@H](O)C(N)=O` [Example 283]: < 6.40. The same measure, in the same setting: next, `CC(C)(C)[C@H](NC(=O)c1nn(Cc2ccc(C#N)cc2)c2ccccc12)C(=O)N1C[C@@H](O)[C@@H](O)C1` [Example 285]: 7.55; `CC(C)(C)[C@H](NC(=O)c1nn(Cc2ccc(F)cc2)c2ccccc12)C(=O)NCC(=N)N` [Example 291]: 8.92; `CC(C)(C)[C@H](NC(=O)c1nn(Cc2ccc(C#N)cc2)c2cc(F)ccc12)C(=O)NC(CO)CO` [Example 296]: 7.19. Same read-out and setting: as for `CC(C)(C)[C@H](NC(=O)c1nn(Cc2ccc(C#N)cc2)c2cc(F)ccc12)C(=O)NC[C@@H](O)CO` [Example 297], the figure is 6.91; as for `CC(C)(C)[C@H](NC(=O)c1nn(Cc2ccc(C#N)cc2)c2cc(F)ccc12)C(=O)NC[C@H](O)CO` [Example 298], 6.74; as for `CC(C)(C)[C@H](NC(=O)c1nn(Cc2ccc(C#N)cc2)c2cc(F)ccc12)C(=O)NCC(N)=O` [Example 301], 7.15.

Still in this assay, the particulars now being: read-out: CB1 Ki.
For `CC(C)(C)C(NC(=O)c1nn(Cc2ccccc2C(N)=O)c2ccccc12)C(N)=O` (stereo not drawn) [Example 34], the pKi was 6.81.

On to `COc1cccc(C2(NC(=O)[C@@H](NC(=O)c3nn(Cc4ccc(C#N)cc4)c4c(F)cccc34)C(C)(C)C)CC2)c1` [Example 212], for which the pKi was 7.28. In the case of `CC(C)(C)[C@H](NC(=O)c1nn(Cc2ccc(C#N)cc2)c2c(F)cccc12)C(=O)N[C@H](CO)c1ccccc1` [Example 216], the negative logarithm of the Ki (pKi) was 6.65. For the compound `CC(C)(C)[C@H](NC(=O)c1nn(Cc2ccc(F)cc2)c2ccccc12)C(=O)N1C[C@@H]2C[C@H]1CN2C(N)=O` [Example 219], the pKi is < 6.40.

Take `CC(C)(C)[C@H](NC(=O)c1nn(Cc2ccc(F)cc2)c2ccccc12)C(=O)N1C[C@@H]2C[C@H]1CN2C(=O)CCC(N)=O` [Example 227]: the pKi is < 6.40. Same read-out and setting: next, `CC(C)(C)[C@H](NC(=O)c1nn(Cc2ccc(F)cc2)c2ccccc12)C(=O)N1CCC(O)(CNC(=O)C2CC2)CC1` [Example 229]: 7.50; `CC(C)(C)[C@H](NC(=O)c1nn(Cc2ccc(F)cc2)c2ccccc12)C(=O)N1C[C@@H]2C[C@H]1CN2CC(O)CO` (stereo partly drawn) [Example 232]: 7.27. On to `CC(C)(C)[C@H](NC(=O)c1nn(Cc2ccc(F)cc2)c2ccccc12)C(=O)N[C@@H](CC(N)=O)C(N)=O` [Example 239], for which the pKi was 7.33. On to `CC(C)(C)[C@H](NC(=O)c1nn(Cc2ccc(C(F)(F)F)cc2)c2ccccc12)C(=O)NCCNS(=O)(=O)c1ccc(C#N)cc1` [Example 267], for which the pKi was 7.11. Still for that read-out and setting: next, `CC(C)(C)[C@H](NC(=O)c1nn(Cc2ccc(F)cc2)c2ccccc12)C(=O)N1CCCC(C(=O)NCCO)C1` (stereo partly drawn) [Example 277]: 7.50. Regarding `CC(C)(C)[C@H](NC(=O)c1nn(Cc2ccc(F)cc2)c2ccccc12)C(=O)N1CCCC(C(=O)NC[C@H](O)CO)C1` (stereo partly drawn) [Example 278], the pKi was 7.16. Regarding `CC(C)(C)[C@H](NC(=O)c1nn(Cc2ccc(C#N)cc2)c2c(F)cccc12)C(=O)N[C@H]1CCc2ccccc21` [Example 287], the pKi was < 6.40. `CC(C)(C)[C@H](NC(=O)c1nn(Cc2ccc(F)cc2)c2ccccc12)C(=O)N[C@H](CC(N)=O)C(N)=O` [Example 290]: the pKi is 7.04.

For the compound `CC(C)(C)[C@H](NC(=O)c1nn(Cc2ccc(F)cc2)c2ccccc12)C(=O)N1CCC[C@H]1C(=O)NCCO` [Example 293], the pKi is < 6.40. Turning to `CC(C)(C)[C@H](NC(=O)c1nn(Cc2ccc(F)cc2)c2ccccc12)C(=O)N1CCC[C@H]1C(=O)NC[C@H](O)CO` [Example 294], the pKi is < 6.40.
